Usually melting point stands for the temperature of the solid-liquid transition. In turn, `O=c1[nH]c2cc(Cl)c(Cl)c(-c3ccncc3)c2[nH]c1=O` gave a melting point greater than 300 °C.
`CC(C(=O)O)c1ccc2c(c1)C(=O)CC(C(C)(C)C)O2` (stereo not drawn) gave a melting point of 117 to 118 °C.
Compound `CCOC(=O)C1CCN(C(N)=S)CC1` showed a melting point of 97 to 98 °C.
`O=C(Nc1cc(C(F)(F)F)ccc1N1CCc2ccccc21)c1ccccc1F` registered a melting point of 127 to 130 °C.
Compound `COc1cc(N)c(Cl)cc1C(=O)NCC1CCN(CCCCCNC(=O)c2ccccc2)CC1` returned a melting point of 138 to 140 °C.
`Cc1c(-c2ccccc2)oc2c(C(=O)OCCCBr)cccc2c1=O` gave a melting point of 114 to 115 °C.
On to `O=C(c1ccc(Oc2ccc(F)cc2)nc1)N1CCCNCC1`, for which the melting point amounted to 95.4 °C.
`COC1CC(c2ccc(-c3ccc(C#N)cc3)cc2)C(OC)O1` (stereo not drawn) registered a melting point of 149 to 150 °C.
Compound `CCCc1c(OCCCSc2ccc(CC(=O)OC)c(Cl)c2Cl)ccc(C(C)=O)c1O` came in with a melting point of 82 to 85 °C.
For `CC(c1ccccc1)C(CS)C(=O)NC(Cc1ccc(O)cc1)C(=O)O` (stereo not drawn), the melting point came to 80 °C.
For the compound `CC(C)(C)OC(=O)N1CCC(c2ccc3nc(-c4ccc(S(C)(=O)=O)cc4F)oc3c2)CC1`, the melting point is 166 to 169 °C.
Consider `CCN1C(=O)C(C)(C)C(=O)N(C)c2cc(CN(CCn3ccc4occc4c3=O)Cc3cc(C)nn3C)ccc21`, for which the melting point lay within 161 to 165 °C.
The compound `O=S(=O)(O)CCN1CCOCC1` displayed a melting point of 68 to 78 °C.
In the case of `CN1CC(CO)CC2(OCCCO)c3cccc4[nH]cc(c34)CC12` (stereo not drawn), the melting point lay within 189 to 195 °C.
Consider `COC(=O)COc1cccc2c1cc(C)n2Cc1cccc(-c2ccccc2)c1`, for which the melting point lay within 99 to 102 °C.
`CCOCCOc1ccc(-c2ccc3c(c2)C=C(C(=O)Nc2ccc(CN(C)C4CCOCC4)cc2)CCS3(=O)=O)cc1Cl` showed a melting point of 203 to 205 °C.
Regarding `COC(=O)C1(N)CCN(c2ncc3ncnc(Nc4ccc(F)c(Cl)c4)c3n2)CC1`, the melting point lay within 182 to 184 °C.
In turn, `COc1cc(-c2cc(C(F)(F)F)nn2-c2ccc(S(C)(=O)=O)cc2)ccc1-c1ccco1` had a melting point of 138 to 140 °C.
`CS(=O)CCC(NS(=O)(=O)c1ccc2c(c1)Sc1ccccc1O2)C(=O)O` (stereo not drawn) registered a melting point of 160 to 170 °C.
In turn, `O=c1ccoc2ccc(F)cc12` yielded a melting point of 165 to 168 °C.
With `Cc1oc(-c2ccco2)nc1COc1ccc(CO)cc1`, the melting point lay within 91 to 92 °C.
The figure for `COc1ccc2c3c1OC1C(=O)C(COS(=O)(=O)c4ccc(C)cc4)(COS(=O)(=O)c4ccc(C)cc4)CC4C(C2)N(C)CCC314` (stereo not drawn) is 150 to 153 °C.
On to `CC(C)NS(=O)(=O)c1cccc(NC(=O)c2cnn3c(C(F)(F)F)cc(-c4ccc(C(F)(F)F)cc4)nc23)c1`, for which the melting point stood at 222 °C.
For `COc1ccc2ccc(C(=O)CNC(=O)Cc3ccc4ccccc4c3)cc2c1`, the melting point was in the range of 169 to 173 °C.
In turn, `CN(C)CC1CNc2ccccc2C1` (stereo not drawn) had a melting point of 85 to 89 °C.
The compound `CC(C)(C)Nc1nc2cc(Cl)c(Cl)cc2[nH]1` registered a melting point of 219 to 221 °C.
In turn, `C=COC(=O)N1CC2C(=O)C=CC(c3ccccc3)(c3ccccc3)C2C1` (stereo not drawn) showed a melting point of 162 °C.
Compound `CCN1CC(=O)N(CC)c2cc(Nc3ncc(Cl)c(Nc4ccccc4S(=O)(=O)N(C)C)n3)c(OC)cc2C1` displayed a melting point of 195 to 197 °C.
As for `CN(C)C=Nc1c(Cl)cc(NCc2ccc(N(C)C)cc2F)cc1Cl`, the melting point lay in the range of 118 to 120 °C.
`O=C(NCc1ccccc1)c1ccnc(NC(=O)c2ccccc2F)c1`: the melting point lay in the range of 175 to 176 °C.
Consider `O=C(O)CCC(O)c1ccc(-c2ccc(Cl)cc2)o1` (stereo not drawn), for which the melting point was 100 to 101 °C.
The same measure for `CCOc1nc(O)cc(OC)n1`: 146 to 148 °C.
For `CCN(CC)c1ccc(S(=O)(=O)N2CC(O)CC2=S)cc1` (stereo not drawn), the melting point lay within 149 to 150 °C.
`Cc1ccc(CO)cc1NC(=O)CC12CC3CC(CC(C3)C1)C2` returned a melting point of 190 °C.
The same measure for `CC(=O)NC(c1ccc(Cl)cc1)(c1ccc2c(c1)c(-c1nc(-c3ccccc3)cs1)cc(=O)n2C)c1cncn1C` (stereo not drawn): 244 °C; for `Cc1cc(Oc2c(Cl)cc(C(F)(F)F)cc2Cl)nn1C(=O)NOC(C)(C)C`: 92 to 94 °C.
`Cn1c(CC#N)ccc1C(=O)c1ccc(F)cc1` returned a melting point of 134 to 136 °C.
`Cc1cc(C)c2c(c1C)OC(=O)C2c1ccc(Br)cc1` (stereo not drawn): the melting point lay in the range of 168 to 169 °C.
`N=C(NS(=O)(=O)C=Cc1ccc(Cl)c(Cl)c1)c1ccccc1` displayed a melting point of 144 to 146 °C.
For the compound `O=C(O)Cc1ccc2c(c1)CC(CNS(=O)(=O)c1ccccc1)C2` (stereo not drawn), the melting point lay in the range of 140 to 141 °C.
With `N#CC(c1ccc(F)cc1)c1ccc(F)cc1`, the melting point was 62 to 63.5 °C.
In turn, `CC(NC(=O)Cc1cc(F)cc(F)c1)C(=O)NC1C(=O)NC(c2ccccn2)c2ccccc21` (stereo not drawn) returned a melting point of 100 °C.
The compound `COC(=O)C12C3C4(C(=O)OC)C1C1(C(=O)OC)C2C3(C(=O)OC)C41Cl` (stereo not drawn) came in with a melting point of 178 to 180 °C.
In turn, `CCCc1c2c(nn1-c1ccccc1)c(=O)[nH]c1ccccc12` yielded a melting point greater than 300 °C.
In turn, `CC(C)C1Sc2ccccc2N(CC(=O)O)C1=S` (stereo not drawn) showed a melting point of 175 to 176 °C.
`O=C1C=C2CCCCC2N1c1ccc(O)cc1` (stereo not drawn) returned a melting point of 210 °C.
The figure for `COC(=O)CNC(=O)COc1ccc(C(C)=O)cc1` is 120 to 121 °C; for `COc1cc2ncc(C#N)c(C)c2cc1OCc1ccccc1` it is 165 to 172 °C.
For `CNN(NC)C(=O)Sc1cc(C)ccc1C(=O)OC`, the melting point is 79.4 to 80 °C.
Compound `CCCCCCCCCCOc1ccc(OCc2ccccc2)c(C(=O)N(CC(=O)OCC)CC(=O)OCC)c1` showed a melting point of 37 to 38 °C.
The figure for `C=C(CCC)C(=O)c1cc2oc(C(=O)O)cc2c(C)c1C` is 172 °C; for `COC12CC(CNC(=S)NC(C)=O)CN(C)C1Cc1c[nH]c3cccc2c13` (stereo not drawn) it is 212 to 214 °C; for `Cc1cc(Br)cnc1CCCCN=C(NCCCc1c[nH]cn1)NC(=O)c1ccccc1` it is 126 to 128 °C.
The same measure for `CCC1(C)CC(NC(=O)c2ccccc2C(=O)O)C(C)C(C)(CC)N1` (stereo not drawn): 196 to 197 °C.
`COc1ccc(C2=NN(C3CCN(C(=O)N4CCOCC4)CC3)C(=O)[C@H]3CC=CC[C@@H]23)cc1Cl` (relative stereo): the melting point fell in the range of 185 to 186 °C.
On to `Cc1nc2c(c3c1[nH]c1ccc(F)cc13)C(=O)CC(C)(C)C2`, for which the melting point is 229 to 230 °C.
As for `Cc1ccc(-c2cc(O)c3[nH]c(=O)ccc3c2)c(C)n1`, the melting point was in the range of 276 to 277 °C.
Compound `COC(=O)CCCC1C(=S)Nc2ccccc21` (stereo not drawn) displayed a melting point of 132 to 134 °C.
As for `CCc1csc(CCc2ccc(NC(=O)/C=C/c3cnn(C)c3-c3ccc(F)cc3)cc2)n1`, the melting point is 200 to 201 °C.
The figure for `O=C(O)CNC(=O)C1(CS)Cc2ccccc2C1` is 137 to 143 °C; for `CCOC(=S)c1ncncc1C` it is 99 to 100 °C.
With `CCOC(=O)c1cc(NC(=O)C(N)Cc2ccccc2)c[nH]1` (stereo not drawn), the melting point lay in the range of 139 to 142 °C.
`COC(=O)Nc1cc(Oc2ccc3c(ccn3C(=O)Nc3ccc(CN4CCN(C)CC4)c(C(F)(F)F)c3)c2)ncn1` came in with a melting point of 138 to 140 °C.

Values taken from a melting point compilation (Tetko et al.; mined from patent text by program, amines drawn as free bases though some values may be those of a salt).
